pIC50: −log10 of the molar value.
Tests used:
pol-β null cells (88TAg) = assay: Growth inhibition assay (modified MTT, MTS); assay type: cell-based, mouse; details: MTS viability 48 hr after 1-2 hr exposure
Procedure: (§1) Culture Conditions and Cell Cytotoxicity Assays. Transformed MEFs were cultured at 37° C. in a humidified incubator with 10% CO2 in DMEM supplemented with 10% fetal bovine serum, penicillin (50 units/ml), streptomycin (50 μg/ml) and Glutamax (4 mM). Human embryonic kidney cells (293T) were cultured similarly in DMEM supplemented with 10% fetal bovine serum, penicillin (50 units/ml), streptomycin (50 μg/ml) and Glutamine (4 mM). TMZ, MMS and MMC induced cytotoxicity was determined by growth inhibition assays. Briefly, cells were seeded in 96-well dishes at 1250 cells/well. After 24 hours, cells (quadruplicate wells) were exposed to serial dilutions of damaging agent in growth media for 1-2 hours (or as indicated in the text) at 37° C. Drug-containing medium was replaced with fresh medium and the plates were incubated at 37° C. for 48 hours at which point the total cell number was determined by a modified MTT assay (MTS; Promega). Metabolically active cells were quantified by the bioreduction of the MTS tetrazolium compound by recording absorbance at 490 nm using a microplate reader. Results were calculated from the average of four separate experiments and are reported as the % of treated cells relative to the cells in control wells (% Control).

[1] = system: MDA-MB-231 cells with Mpg/Aag over-expression combined with pol-β knockdown; assay: Temozolomide growth inhibition assay (MTS); assay type: cell-based, human; details: TMZ 48 hours; compared to the parental MDA-MB-231 cells
Procedure: Culture Conditions and Cell Cytotoxicity Assays. Human Mpg over-expression, human pol-β knockdown and human pol-β over-expressing MDA-MB-231 breast cancer cell lines were cultured at 37° C. in a humidified incubator with 5% CO2 in RPMI 1640 (Cambrex Biosciences Group, Walkersville, Md.) supplemented with 10% heat inactivated fetal bovine serum and gentamicin (10 μg/ml). Temozolomide induced cytotoxicity was determined by growth inhibition assays. Briefly, cells were seeded in 96-well dishes at 2000 cells/well. After 24 hours, cells (quadruplicate wells) were exposed to serial dilutions of Temozolomide in growth media at 37° C. for 48 hours at which point the total cell number was determined by a modified 3-(4,5-dimethylthiazol-2-yl)-2,5-diphenyltetrazolium bromide (MTT) assay (MTS; Promega Madison, Wis.) (Cory et al., Cancer Communications; 3(7):207-12 (1991)). Metabolically active cells were quantified by the bioreduction of the MTS tetrazolium compound by recording absorbance at 490 nm using a microplate reader. Results were calculated from the average of four separate experiments and are reported as the % of treated cells relative to the cells in control wells (% Control).

Wt cells (92TAg) = assay: TMZ growth inhibition assay (modified MTT, MTS); assay type: cell-based; details: Mus musculus, TMZ exposure 48 hr
Procedure: as §1

[2] = system: Wt pol-β knockdown cells over-expressing hAag (wt hAag.2/polβ-KD.4, wt hAag.3/polβ-KD.4); assay: TMZ growth inhibition assay (modified MTT, MTS); assay type: cell-based, mouse; details: for pIC50: Mus musculus
Description: Cell Lines and Transfection Conditions. Transformed MEF cell lines (92TAg, Wt; 88TAg, pol-β null; 308TAg, Aag null and 283TAg, pol-β null/Aag null) have been described previously and are available from the ATCC. 293T cells were a gift from J. O'Bryan (NIEHS, NIH). Primary cultures of pol-λ, null MEFs were a kind gift from C.A. Reynaud (Faculte de Medecine Necker-Enfants Malades, Paris, France). The pol-ι null MEFs were derived from C129SvJ mice as described previously and identified by PCR to confirm the pol-ι null mutation. These were immortalized by SV40 large T-antigen (370TAg, pol-λ, null; 369TAg, pol-ι null) as described previously. Human Aag over-expressing cell lines were prepared as follows: briefly, 1.5×10^5 cells were seeded into 60 mm dishes and incubated for 24-30 hours at 10% CO2 at 37° C. The Aag expression plasmid (pRS1422) was transfected using FuGene 6 Transfection Reagent (Roche Diagnostic Corp) according to the manufacturer's instructions. Stable cell lines were selected in G418 (600 μg/ml) for 2 weeks, individual clones were amplified and 20 μg of nuclear extract was analyzed by immunoblotting for the expression of human Aag protein and then re-probed for expression of pol-β and PCNA.
Transfection of the pSuper siRNA plasmids was completed as follows: Briefly, 1.5×10^5 cells were seeded into 60 mm dishes and incubated for 24-30 hours at 10% CO2 at 37° C. […] For transient transfections, cells were lysed 24 hours post transfection by boiling in Laemmli buffer and analyzed by immunoblotting for the expression of the V5-pol-β transgene using anti-V5 (Invitrogen). […] Individual clones were amplified and 20 μg of nuclear extract was analyzed by immunoblotting for the expression of endogenous pol-β protein using the Nucbuster nuclear protein extract reagent (Novagen) and then re-probed for expression of PCNA as a loading control.
Culture Conditions and Cell Cytotoxicity Assays. […] TMZ, MMS and MMC induced cytotoxicity was determined by growth inhibition assays. […]

γ-H2AX = γ-H2AX immunoblotting; assay type: cell-based, mouse; details: MMS 1 hr or TMZ 2 hr exposure
Procedure: For γ-H2AX immunoblotting, protein was prepared as follows: briefly, 6×10^5 cells were seeded into 150 mm dishes and incubated for 24 hours at 10% CO2 at 37° C. Cells were treated with MMS and TMZ for 1 or 2 hr respectively, and whole cells were scraped from the plates in 1×PBS, washed, and immediately placed on dry ice. Thawed pellets were re-suspended in a 1:1 ratio of RIPA buffer and Laemmli buffer. Samples were boiled for 5 minutes and protein from an equal cell number was added to each well. Protein was separated by electrophoresis in a 12% SDS-polyacrylamide gel and electro-transferred to a […] nitrocellulose membrane (Trans-Blot, Bio-Rad). Membranes were blocked for 20 minutes in a 3% dried milk/TBS solution at room temperature and incubated with 0.5-1 μg/ml of anti-phospho-H2AX (Serine 139) (Upstate) prepared in TBS/3% dried milk and 0.1% Tween20 over night at 4° C. Membranes were washed twice with water and incubated with horseradish peroxidase (HRP)-conjugated secondary antibody (goat anti-rabbit HRP; Bio-Rad) at room temperature for 1.5 hour. Following a series of washes with water and TBS, HRP activity was detected using the Super Signal West Femto reagent (Pierce). Each membrane was re-probed with anti-PCNA to correct for differences in protein loading, and densitometry was used to quantitate with Quantity One 1-D analysis software (BioRad).

Question: Which “sensitivity of pol-β null cells relative to Wt and other null cells” value (pol-β null cells (88TAg)) does the source give for `CO[C@@]12[C@H](COC(N)=O)C3=C(C(=O)C(C)=C(N)C3=O)N1C[C@@H]1N[C@@H]12` [MMC, Mitomycin C] here?
Answer: equally sensitive

Question: How did the “decrease in IC50” value [1] turn out when `Cn1nnc2c(C(N)=O)ncn2c1=O` [TMZ, temozolomide] was run?
Answer: ~10 fold

Question: And the pIC50 (Wt cells (92TAg))?
Answer: 2.59

Question: What about the pIC50 ([2]; TMZ exposure 2 hr, viable cells after 48 hr, wt hAag.2/polβ-KD.4 and wt hAag.3/polβ-KD.4 cells) of the same compound?
Answer: 2.90

Question: And the pIC50 ([2]; TMZ exposure 48 hr, wt hAag.3/Polβ-KD.4 cells)?
Answer: ~3.15

Question: And the TMZ efficacy improved ([2]; TMZ exposure 48 hr, hAag over-expression plus pol-β knockdown compared with Wt cells)?
Answer: ~4 fold

Question: How did the “γ-H2AX expression in pol-β deficient cells as compared to Wt cells” value (γ-H2AX) turn out when `COS(C)(=O)=O` [MMS, Methyl methanesulfonate] was run?
Answer: clear increase

Source: US20100048682A1, “INHIBITING DNA POLYMERASE BETA TO ENHANCE EFFICACY OF ANTICANCER AGENTS” (UNIVERSITY OF PITTSBURGH - OF THE COMMONWEALTH SYSTEM OF …, priority 2005, published 2010)
